This is an account of results in US11938168B2, “Ophthalmic compositions and methods of use therefor” (Auckland Uniservices Limited, priority 2015, dated 2024).

A value given as a limit tells only on which side of the number the result lay.

The subject of assay [1] is mink lung epithelial (Mv1Lu) cells. Conditions: exemplary activity; cited from earlier work.
For the next assay, the system named is keratocytes. The assay can be described thus: TGFβ3 and dexamethasone tested separately, collagen type II production. It counts as cell-based. Conditions: agents tested separately.

Take “TGFβ3: TGFβ3 polypeptide, SEQ ID NO:1; recombinant human TGFβ3 from commercial sources (Abcam, ab52313)”: in assay [1], the “ED50, inhibition of Mv1Lu cell proliferation” value is ≤ 0.05 µg/mL. Besides, in the assay with keratocytes, the “collagen type II production in keratocytes” value is “no collagen type II production”.

With `C[C@@H]1C[C@H]2[C@@H]3CCC4=CC(=O)C=C[C@]4(C)[C@@]3(F)[C@@H](O)C[C@]2(C)[C@@]1(O)C(=O)CO` [dexamethasone, reference compound], the “collagen type II production in keratocytes” value in the assay with keratocytes was “no collagen type II production”.
